Source: patent publication US20240286998A1, “F[…], ANALOGUES THEREOF, AND METHODS USING SAME” (Saint Joseph's University, priority 2021, published 2024)
Counter-ions that a name gives are not always drawn.

Key:
Serotonin 5-HT2A (human) = Serotonin 5-HT2A (human) (Homo sapiens (Human), UniProt P28223); test: 5-HT2A receptor binding, [3H]-ketanserin competition in membrane fractions; settings: 1 nM [3H]-ketanserin, Cheng-Prusoff, N=1-3

Q: With CC(C)N(CCc1c[nH]c2ccc(F)cc12)CC1CC1 (as salt: hydrochloride) as the molecule, how does the melting point read?
A: 191 to 192.5 °C

Q: With CCCN(CCc1c[nH]c2ccc(F)cc12)C(C)CC (stereo not shown) (as salt: hydrochloride) [compound 22, N-(2-(5-fluoro-1H-indol-3-yl)ethyl)-N-propylbutan-2-amine] as the molecule, how does the melting point read?
A: 153.2 to 155.4 °C

Q: Which melting point does the source give for CC(C)N(CC#N)CCc1c[nH]c2ccc(F)cc12 (as salt: HCl) [compound 17, 2-((2-(5-fluoro-1H-indol-3-yl)ethyl)(isopropyl)amino)acetonitrile] here?
A: 147 to 150 °C (dec.)

Q: For CCCN(CC)CCc1c[nH]c2ccc(F)c(F)c12 (as salt: fumarate) [compound 21, N-(2-(4,5-difluoro-1H-indol-3-yl)ethyl)-N-ethylpropan-1-amine], which melting point is on record?
A: 182.1 to 183.3 °C

Q: Which melting point does the source give for CN(CCc1c[nH]c2ccc(F)cc12)C1CC1 (as salt: hydrochloride) [compound 160, N-(2-(5-fluoro-1H-indol-3-yl)ethyl)-N-methylcyclopropanamine] here?
A: 218.8 to 219.3 °C

Q: Which melting point does the source give for CC(C)C(C)N(C)CCc1c[nH]c2ccc(F)cc12 (stereo not shown) (as salt: hydrochloride) here?
A: 157.5 to 158.1 °C

Q: For CCCN(CC)CCc1c[nH]c2c(F)c(F)c(F)cc12 (as salt: hydrochloride) [compound 165, N-ethyl-N-[2-(5,6,7-trifluoro-1H-indol-3-yl)ethyl]propan-1-amine], which melting point is on record?
A: 188 to 188.8 °C

Q: With CCCN(CC)CCc1c[nH]c2ccc(F)cc12 (as salt: HCl) [Example 6, N-ethyl-N-(2-(5-fluoro-1H-indol-3-yl)ethyl)propan-1-amine] as the molecule, how does the melting point read?
A: 154.5 to 155.4 °C

Q: For CCC(C)N(C)CCc1c[nH]c2ccc(F)cc12 (stereo not shown) (as salt: HCl) [Example 3, N-(2-(5-fluoro-1H-indol-3-yl)ethyl)-N-methylbutan-2-amine], which melting point is on record?
A: 136.5 to 142 °C

Q: For CC(C)CN(C)CCc1c[nH]c2ccc(F)cc12 (as salt: hydrochloride) [compound 39, N-(2-(5-fluoro-1H-indol-3-yl)ethyl)-N,2-dimethylpropan-1-amine], which melting point is on record?
A: 150 to 151.5 °C

Q: For CCCN(CC)CCc1c[nH]c2cc(Cl)c(F)cc12 (as salt: hydrochloride) [compound 37, N-(2-(6-chloro-5-fluoro-1H-indol-3-yl)ethyl)-N-ethylpropan-1-amine], which melting point is on record?
A: 231 to 232.6 °C

Q: With CCN(C)CCc1c[nH]c2c(F)cc(F)cc12 (as salt: hydrochloride) [compound 69, 2-(5,7-difluoro-1H-indol-3-yl)-N-ethyl-N-methylethan-1-amine] as the molecule, how does the melting point read?
A: 152.7 to 153.5 °C

Q: For CCN(CCc1c[nH]c2ccc(F)cc12)C1CC1 (as salt: hydrochloride), which melting point is on record?
A: 219.7 to 220.1 °C

Q: With C=CCN(CCc1c[nH]c2ccc(F)cc12)C1CCC1 (as salt: HCl) [Example 14, N-allyl-N-(2-(5-fluoro-1H-indol-3-yl)ethyl)cyclobutanamine] as the molecule, how does the melting point read?
A: 196.3 to 199 °C

Q: For CN1CCC(c2c[nH]c3ccc(F)cc23)C1 (stereo not shown) [compound 15, 5-fluoro-3-(1-methylpyrrolidin-3-yl)-1H-indole], which melting point is on record?
A: 122.8 to 125.1 °C

Q: What about the “5-HT2A pKi ± SEM” value (Serotonin 5-HT2A (human)) of the same molecule?
A: 6.98

Q: With CC(C1CC1)N(C)CCc1c[nH]c2ccc(F)cc12 (stereo not shown) (as salt: HCl) as the molecule, how does the melting point read?
A: 100.7 to 101.5 °C

Q: With CC(C)N(CCc1c[nH]c2ccc(F)cc12)C1CC1 [compound 168, N-(2-(5-fluoro-1H-indol-3-yl)ethyl)-N-isopropylcyclopropanamine] as the molecule, how does the melting point read?
A: 196.4 to 196.8 °C

Q: What about the “5-HT2A pKi ± SEM” value (Serotonin 5-HT2A (human)) of the same molecule?
A: 6.18
